Data on nine compounds can be found in patent publication US20230374038A1, “MODULATORS OF CYSTIC FIBROSIS TRANSMEMBRANE CONDUCTANCE REGULATOR” (VERTEX PHARMACEUTICALS INCORPORATED, priority 2020, published 2023).

Data set [1] addresses T1, CFTR (Homo sapiens, UniProt P13569). Briefly: Membrane Potential Dye, Enteroid Assay A. In kind it is cell-based. The settings on record: for EC50: read-out: Ent. A EC50. As for the experimental part:
Base medium (ADF+++) consisted of Advanced DMEM/Ham's F12, 2 mM Glutamax, 10 mM HEPES, 1 µg/mL penicillin/streptomycin.
Intestinal enteroid maintenance medium (IEMM) consisted of ADF+++, 1× B27 supplement, 1× N2 supplement, 1.25 mM N-acetyl cysteine, 10 mM Nicotinamide, 50 ng/mL hEGF, 10 nM Gastrin, 1 pg/mL hR-spondin-1, 100 ng/mL hNoggin, TGF-b type 1 inhibitor A-83-01, 100 μg/mL Primocin, […] P38 MAPK inhibitor SB202190.
Bath 1 Buffer consisted of 1 mM MgCl2, 160 mM NaCl, 4.5 mM KCl, 10 mM HEPES, 10 mM Glucose, 2 mM CaCl2).
Chloride Free Buffer consisted of 1 mM Magnesium Gluconate, 2 mM Calcium Gluconate, 4.5 mM Potassium Gluconate, 160 mM Sodium Gluconate, 10 mM HEPES, 10 mM Glucose.
Bath1 Dye Solution consisted of Bath 1 Buffer, 0.04% Pluronic F127, […] Methyl Oxonol, 30 μM CaCCinh-A01, 30 μM Chicago Sky Blue.
Chloride Free Dye Solution consisted of Chloride Free Buffer, 0.04% Pluronic F127, 20 μM Methyl Oxonol, 30 μM CaCCinh-A01, 30 μM Chicago Sky Blue.
Chloride Free Dye Stimulation Solution consisted of Chloride Free Dye Solution, 10 μM forskolin, 100 μM IBMX, and 300 nM Compound III.
Human intestinal epithelial enteroid cells were obtained from the Hubrecht Institute for Developmental Biology and Stem Cell Research, Utrecht, The Netherlands and expanded in T-Flasks as previously described (Dekkers J F, Wiegerinck C L, de Jonge H R, Bronsveld I, Janssens H M, de Winter-de Groot K M, Brandsma A M, de Jong N W M, Bijvelds M J C, Scholte B J, Nieuwenhuis E E S, van den Brink S, Clevers H, van der Ent C K, Middendorp S and M Beekman J M. A functional CFTR assay using primary cystic fibrosis intestinal organoids. Nat Med. 2013 July; 19(7):939-45.).
Cells were recovered in cell recovery solution, collected by centrifugation at 650 rpm for 5 min at 4° C., resuspended in TryPLE and incubated for 5 min at 37° C. Cells were then collected by centrifugation at 650 rpm for 5 min at 4° C. and resuspended in IEMM containing 10 μM ROCK inhibitor (RI). The cell suspension was passed through a 40 μm cell strainer and resuspended at 1×10^6 cells/mL in IEMM containing 10 μM RI. Cells were seeded at 5000 cells/well into multi-well plates and incubated for overnight at 37° C., 95% humidity and 5% CO2 prior to assay.
Enteroid cells were incubated with test compound in IEMM for 18-24 hours at 37° C., 95% humidity and 5% CO2. […] Briefly, cells were washed 5 times in Bath 1 Buffer. Bath 1 Dye Solution was added, and the cells were incubated for 25 min at room temperature. Following dye incubation, cells were washed 3 times in Chloride Free Dye Solution. Chloride transport was initiated by addition of Chloride Free Dye Stimulation Solution and the fluorescence signal was read for 15 min. […] Chloride transport was then expressed as a percentage of the chloride transport following treatment with 3 μM (S)—N-((6-aminopyridin-2-yl)sulfonyl)-6-(3-fluoro-5-isobutoxyphenyl)-2-(2,2,4-trimethylpyrrolidin-1-yl)nicotinamide, 3 μM (R)-1-(2,2-difluorobenzo[d][1,3]dioxol-5-yl)-N-(1-(2,3-dihydroxypropyl)-6-fluoro-2-(1-hydroxy-2-methylpropan-2-yl)-1H-indol-5-yl)cyclopropanecarboxamide and 300 nM acute N-[2,4-bis(1,1-dimethylethyl)-5-hydroxyphenyl]-1,4-dihydro-4-oxoquinoline-3-carboxamide triple combination control (% Activity).

For data set [2], the target named is T2, CFTR (Homo sapiens, UniProt P13569, DEL508-508).
T2 construct: endogenous in cells; host or cells: primary human bronchial epithelial cells, F508del/MF genotype
T2 sequence (P13569 with tags, fused parts or gaps DEL508-508): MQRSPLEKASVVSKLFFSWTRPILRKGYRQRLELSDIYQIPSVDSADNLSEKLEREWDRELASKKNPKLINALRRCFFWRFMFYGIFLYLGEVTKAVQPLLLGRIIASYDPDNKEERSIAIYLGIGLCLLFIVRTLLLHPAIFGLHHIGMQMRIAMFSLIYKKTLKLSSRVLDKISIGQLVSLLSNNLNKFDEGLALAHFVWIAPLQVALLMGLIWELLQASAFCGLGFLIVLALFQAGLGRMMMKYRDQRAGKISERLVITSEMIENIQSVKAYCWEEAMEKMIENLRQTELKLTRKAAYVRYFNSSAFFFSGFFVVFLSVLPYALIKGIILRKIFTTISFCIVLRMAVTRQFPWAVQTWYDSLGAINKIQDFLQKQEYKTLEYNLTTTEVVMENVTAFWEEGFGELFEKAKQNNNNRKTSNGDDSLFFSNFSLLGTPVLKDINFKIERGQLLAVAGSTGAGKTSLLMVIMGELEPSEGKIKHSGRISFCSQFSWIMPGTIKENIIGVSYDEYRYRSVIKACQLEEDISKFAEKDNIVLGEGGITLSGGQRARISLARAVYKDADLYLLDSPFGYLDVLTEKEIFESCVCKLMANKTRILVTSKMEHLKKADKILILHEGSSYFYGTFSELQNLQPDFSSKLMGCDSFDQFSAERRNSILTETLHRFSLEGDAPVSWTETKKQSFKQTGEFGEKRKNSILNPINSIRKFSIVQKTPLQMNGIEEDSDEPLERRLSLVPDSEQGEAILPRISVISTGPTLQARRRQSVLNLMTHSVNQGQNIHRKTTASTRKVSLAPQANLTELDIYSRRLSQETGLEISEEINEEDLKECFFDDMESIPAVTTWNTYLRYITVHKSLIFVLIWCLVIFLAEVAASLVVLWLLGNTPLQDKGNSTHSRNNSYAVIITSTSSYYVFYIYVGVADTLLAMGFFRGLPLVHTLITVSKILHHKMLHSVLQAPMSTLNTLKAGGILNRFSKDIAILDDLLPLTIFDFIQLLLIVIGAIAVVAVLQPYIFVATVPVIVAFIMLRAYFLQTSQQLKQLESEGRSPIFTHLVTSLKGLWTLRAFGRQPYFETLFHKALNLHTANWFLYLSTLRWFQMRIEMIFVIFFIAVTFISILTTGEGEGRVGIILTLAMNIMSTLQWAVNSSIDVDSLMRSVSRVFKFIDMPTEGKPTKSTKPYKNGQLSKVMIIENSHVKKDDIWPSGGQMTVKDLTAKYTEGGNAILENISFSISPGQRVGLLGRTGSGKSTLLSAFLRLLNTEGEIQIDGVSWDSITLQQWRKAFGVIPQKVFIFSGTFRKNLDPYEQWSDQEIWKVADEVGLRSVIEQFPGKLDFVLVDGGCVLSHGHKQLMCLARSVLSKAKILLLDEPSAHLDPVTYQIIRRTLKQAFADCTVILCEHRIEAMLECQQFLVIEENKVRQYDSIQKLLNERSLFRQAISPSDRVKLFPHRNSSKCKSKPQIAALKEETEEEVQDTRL
In words: HBE Assay: Ussing chamber assay of CFTR-mediated short-circuit currents in F508del/MF-HBE cells with 1 μM Ivacaftor. The data set is classed as cell-based. To be noted: with 1 μM Ivacaftor, 18-24 hours, 20% human serum. The method, boiled down: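 F508del/MF-HBE cells at air-liquid interface >14 days were incubated 18-24 h at 37° C with corrector (concentration range or fixed 10 μM) plus 1 μM Ivacaftor in 20% human serum, compounds kept throughout. Ussing chamber, Vhold=0 mV, 37° C, apical amiloride 30 μM; ISC (μA/cm^2) from peak 20 μM forskolin response to steady state after CFTR inhibitor cocktail.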

Data set [3] has as its target T1, CFTR. Briefly: Membrane Potential Dye, Enteroid Assay B. The data set is classed as cell-based. The settings on record: for EC50: read-out: Ent. B EC50. The method, boiled down: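 Membrane-potential fluorescence read over 15 min after chloride-free stimulation (forskolin 10 μM, IBMX 100 μM, Compound III 300 nM), with CaCCinh-A01 and Chicago Sky Blue present. Enteroids had 18-24 h compound exposure at 37 °C; activity given as % of the triple-combination corrector/potentiator reference response.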

Read-outs that look alike come from different tables or passages of the source. Where only a bound is given, the exact number is not on record here.

T1 sequence (P13569 with tags, fused parts or gaps DEL508-508): as above

The EC50 is the concentration giving half of the maximal effect. For `Cc1ccccc1-c1nc2nc(c1C(F)(F)F)OCC1CN(CCN1CCC1(C(F)(F)F)CC1)C(=O)c1cccc(c1)S(=O)(=O)N2` (stereo not drawn) [Compound 32, 12-(2-Methylphenyl)-13-(trifluoromethyl)-18-{2-[1-(trifluoromethyl)cyclopropyl]ethyl}-15-oxa-8λ^6-thia-1,9,11,18,22-pentaazatetracyclo[15.3.1.13,7.110,14]tricosa-3(23),4,6,10(22),11,13-hexaene-2,8,8-trione], at CFTR [1], the “Ent. A Max Activity” value is on record as “++ (++ is 30-60%)” and the EC50 was in the range of 1000 to 3000 nM. This compound also showed a ring closure, yield after HPLC (from Cc1ccccc1-c1nc(NS(=O)(=O)c2cccc(C(=O)O)c2)nc(OCC2CNCCN2CCC2(C(F)(F)F)CC2)c1C(F)(F)F, amide bond, 14-membered ring, HATU/DIEA, DMF, 25.0 °C, 1.0 h, 3 steps) of 16%.
The compound `Cc1c2nc(nc1-c1ccccc1C(C)C)NS(=O)(=O)c1cccc(c1)C(=O)N(Cc1ncc(N3CCOCC3)cn1)[C@H](CC(C)(C)C)CO2` [Compound 173, (11R)-11-(2,2-Dimethylpropyl)-7-methyl-12-{[5-(morpholin-4-yl)pyrimidin-2-yl]methyl}-6-[2-(propan-2-yl)phenyl]-9-oxa-2λ^6-thia-3,5,12,19-tetraazatricyclo[12.3.1.14,8]nonadeca-1(17),4(19),5,7,14(18),15-hexaene-2,2,13-trione] had a ring closure, yield after HPLC (from Cc1c(OC[C@@H](CC(C)(C)C)NCc2ncc(N3CCOCC3)cn2)nc(NS(=O)(=O)c2cccc(C(=O)O)c2)nc1-c1ccccc1C(C)C, amide bond, 13-membered ring, CDMT/NMM, DMF, 57.0 mM, 19.0 h, 2 steps) of 18%. Besides, on CFTR [2], the EC50 was under 1000 nM and the “HBE Max Activity” value is given as “+++ (+++ is >600%)”.
Turning to `Cc1ccccc1-c1nc2nc(c1C(F)(F)F)OCC1CN(C)CCN1C(=O)c1cccc(c1)S(=O)(=O)N2` (stereo not drawn) [Compound 31, 6-Methyl-13-(2-methylphenyl)-12-(trifluoromethyl)-10-oxa-17λ^6-thia-3,6,14,16,23-pentaazatetracyclo[16.3.1.111,15.03,8]tricosa-1(22),11,13,15(23),18,20-hexaene-2,17,17-trione], at CFTR [1], the “Ent. A Max Activity” value is “++ (++ is 30-60%)” and the EC50 lay in the range of 3000 to 30000 nM. The same compound gave a ring closure, yield after HPLC (from Cc1ccccc1-c1nc(NS(=O)(=O)c2cccc(C(=O)N3CCN(C)CC3CO)c2)nc(Cl)c1C(F)(F)F, snar bond, 13-membered ring, NaH, NMP, 70.0 °C, 4.0 h, 2 steps) of 6%.
`Cc1cccc(C)c1-c1nc2nc(c1C)OC[C@@H](C)NC(=O)c1cccc(c1)S(=O)(=O)N2` [Compound 117, (11R)-6-(2,6-Dimethylphenyl)-7,11-dimethyl-9-oxa-2λ^6-thia-3,5,12,19-tetraazatricyclo[12.3.1.14,8]nonadeca-1(18),4,6,8(19),14,16-hexaene-2,2,13-trione]: at CFTR [3], the “Ent. B Max Activity” value is on record as “++ (++ is 30-60%)” and the EC50 was in the range of 1000 to 3000 nM. The ring closure, yield after HPLC (from Cc1cccc(C)c1-c1nc(NS(=O)(=O)c2cccc(C(=O)O)c2)nc(OC[C@@H](C)N)c1C, amide bond, 13-membered ring, HATU/DIEA, DMF, 49.3 mM, 1.0 h) was found to be 18%.
As for `Cc1ccccc1-c1nc2nc(c1C(C)(C)C)OCC1CN(CCN1CCC1(C(F)(F)F)CC1)C(=O)c1cccc(c1)S(=O)(=O)N2` (stereo not drawn) [Compound 33, 13-tert-Butyl-12-(2-methylphenyl)-18-{2-[1-(trifluoromethyl)cyclopropyl]ethyl}-15-oxa-8λ^6-thia-1,9,11,18,22-pentaazatetracyclo[15.3.1.13,7.110,14]tricosa-3(23),4,6,10(22),11,13-hexaene-2,8,8-trione], on CFTR [1], the “Ent. A Max Activity” value is on record as “+++ (+++ is >60%)” and the concentration giving a half-maximal response (EC50) was 1000 to 3000 nM. Besides, the ring closure, yield after HPLC (from Cc1ccccc1-c1nc(NS(=O)(=O)c2cccc(C(=O)O)c2)nc(OCC2CNCCN2CCC2(C(F)(F)F)CC2)c1C(C)(C)C, amide bond, 14-membered ring, HATU/DIEA, DMF, 25.0 °C, 1.0 h, 3 steps) is 8%.
In the case of `Cc1cccc(C)c1-c1nc2nc(c1F)O[C@H](c1ccc(C(C)(C)C)cc1)[C@@H](C)NC(=O)c1cccc(c1)S(=O)(=O)N2` [Compound 167, (10R,11R)-10-(4-tert-Butylphenyl)-6-(2,6-dimethylphenyl)-7-fluoro-11-methyl-2,2-dioxo-9-oxa-2λ^6-thia-3,5,12,19-tetrazatricyclo[12.3.1.14,8]nonadeca-1(18),4(19),5,7,14,16-hexaen-13-one], on CFTR [3], the “Ent. B Max Activity” value is “+++ (+++ is >60%)” and the half-maximal effective concentration (EC50) is under 1000 nM. This compound also yielded a ring closure, yield after HPLC (amide bond, 13-membered ring, NaOtBu then HATU, THF/DMF, 30.0 mM, 2 steps) of 30%.
Consider `Cc1cccc(C)c1-c1nc2nc(c1C(F)(F)F)OC[C@@H](CC(C)C)N(C1CC3(CC3)C1)C(=O)c1cccc(c1)S(=O)(=O)N2` [Compound 162, (11R)-6-(2,6-dimethylphenyl)-11-isobutyl-2,2-dioxo-12-spiro[2.3]hexan-5-yl-7-(trifluoromethyl)-9-oxa-2λ^6-thia-3,5,12,19-tetrazatricyclo[12.3.1.14,8]nonadeca-1(18),4(19),5,7,14,16-hexaen-13-one], for which, at CFTR [3], the “Ent. B Max Activity” value is reported as “+++ (+++ is >60%)” and the EC50 is under 1000 nM. Also, the ring closure, yield after HPLC (from Cc1cccc(C)c1-c1nc(NS(=O)(=O)c2cccc(C(=O)O)c2)nc(OC[C@@H](CC(C)C)NC2CC3(CC3)C2)c1C(F)(F)F, amide bond, 13-membered ring, HATU/TEA, DMF, 11.7 mM, 16.0 h) turned out to be 69%.
Consider `Cc1cccc(C)c1-c1nc2nc(c1C)OC[C@@H](C)N(C1CC3(CC(NC(=O)OC(C)(C)C)C3)C1)C(=O)c1cccc(c1)S(=O)(=O)N2` (stereo partly drawn) [Compound 116, tert-Butyl N-{6-[(11R)-6-(2,6-dimethylphenyl)-7,11-dimethyl-2,2,13-trioxo-9-oxa-2λ^6-thia-3,5,12,19-tetraazatricyclo[12.3.1.14,8]nonadeca-1(18),4,6,8(19),14,16-hexaen-12-yl]spiro[3.3]heptan-2-yl}carbamate], for which, on CFTR [3], the “Ent. B Max Activity” value is listed as “++ (++ is 30-60%)” and the EC50 was under 1000 nM. This compound also displayed a ring closure, yield after HPLC (from Cc1cccc(C)c1-c1nc(NS(=O)(=O)c2cccc(C(=O)O)c2)nc(OC[C@@H](C)NC2CC3(CC(NC(=O)OC(C)(C)C)C3)C2)c1C, amide bond, 13-membered ring, HATU/TEA, DMF, 26.7 mM, 1.0 h) of 57%.
`Cc1cccc(C)c1-c1nc2nc(c1C)OC[C@@H](CC(C)(C)C)N(Cc1ccc(N3CCOCC3)cn1)C(=O)c1cccc(c1)S(=O)(=O)N2` [Compound 49, (11R)-6-(2,6-Dimethylphenyl)-11-(2,2-dimethylpropyl)-7-methyl-12-{[5-(morpholin-4-yl)pyridin-2-yl]methyl}-9-oxa-2λ^6-thia-3,5,12,19-tetraazatricyclo[12.3.1.14,8]nonadeca-1(17),4(19),5,7,14(18),15-hexaene-2,2,13-trione] had a ring closure, yield after HPLC (from Cc1cccc(C)c1-c1nc(NS(=O)(=O)c2cccc(C(=O)O)c2)nc(OC[C@@H](CC(C)(C)C)NCc2ccc(N3CCOCC3)cn2)c1C, amide bond, 13-membered ring, CDMT/NMM, DMF, 21.0 mM, 15.0 h, 2 steps) of 5%. At CFTR [2], the concentration for a half-maximal effect (EC50) is under 1000 nM and the “HBE Max Activity” value is on record as “+++ (+++ is >600%)”.
